According to patent US6368788B1 (priority 1987, dated 2002):

Key:
[1] = Survival in LPS-induced endotoxic shock; assay type: in vivo, CBA mice; details: 100 μg/kg prophylactic
Protocol: The mortality results were evaluated using the Litchfield-Wilcoxon's probit analysis method and a computer program written to conduct probit analyses.

T-lymphocyte function = experiment: Naval specialists with occupational immunologic impairments; assay type: in vivo, human; details: 3 daily intranasal doses of 100 mcg
Protocol: A clinical trial was conducted of 152 naval specialists (aged 20-40 years) with evidence of occupational immunologic impairments resulting from their exposure to radiation and occupational toxins in the Kosomolets nuclear submarine sinking off the coast of […]. L-Glu-L-Trp was evaluated for its possible effects on cellular and/or humoral immunity. Approximately 87% of the servicemen entered into the trial had moderate to severely impaired T-lymphocyte functional activity, (i.e., evidenced by decreased LMIR and blastogenesis with Con-A) and reduced neutrophil phagocytic activity (i.e., 30-40% of normal). Immune parameters were determined before and after a routine 21-24 day rest period, during a normal rest/recuperation and training rotation. Servicemen were divided into two groups, the first (control) group received no treatment, and the second (experimental) group of 88 servicemen received three consecutive daily intranasal doses of 100 mcg L-Glu-L-Trp.

[2] = test system: acute respiratory infections; experiment: Prophylaxis of respiratory infection in athletes in training, intranasal L-Glu-L-Trp; assay type: in vivo, human; details: for B-Lymphocytes / B-Lymphocytes % Normal Value / B-Lymphocytes (%) / Blasts w/Con-A / Blasts w/PHA / C3 / Eosinophils / Eosinophils (%) / Eosinophils, % Normal Value / Granulocyte Cationic Proteins / IgA / IgA % Normal Value / IgG / IgG % Normal Value / IgM / IgM % Normal Value / Leukocytes / Leukocytes % Normal Value / Leukocytes, Ratio Post-Treat/Pre-Treat Value / Lymphocytes / Lymphocytes % Normal Value / Lymphocytes, % / Monocytes / Monocytes, % / Monocytes, % Normal Value / Neutrophils / Neutrophils, % / Neutrophils, % Normal Value / Phagocytosis (yeast) / Salivary IgM / Salivary Lysozyme / Salivary Secretory IgA / Serum Lysozyme / Serum β-Lysin / T-Lymphocytes / T-Lymphocytes % Normal Value / T-Lymphocytes (%) / T-helper (CD4+) / T-helper (CD4+), % / T-helper (CD4+), % Normal Value / T-suppressor (CD8+) / T-suppressor (CD8+), % / T-suppressor (CD8+), % Normal Value / Total Salivary IgA: After L-Glu-L-Trp
Chronic prostatitis = assay type: in vivo, human
Source text: Thirty four patients (aged 22 to 45 years) with chronic prostatitis were entered into Group 1 of this trial during the acute phase of their disease. Diagnosis was based on medical history, and physical examination of the prostate (palpated through the rectum). Laboratory testing included microscopic examination of prostate gland secretions, spermography and urinalysis. All patients had previously received full courses of unsuccessful therapy with antibacterial agents, and additional individualized therapy including uroantiseptics, spasmolytic, ganglion blockers, novocain paraprostate and presacral blocks, ultrasound, and prostate gland massage. Success of any individualized therapy was only partial and short-term. […]
Peripheral blood samples were collected for laboratory testing 10 days after the last injection of L-Glu-L-Trp. […]

[3] = After L-Glu-L-Trp, pre-treatment value Decreased (n = 14)
[4] = Group 1, After L-Glu-L-Trp, 10 days after the last injection

L-Glu-L-Trp
Survivors at 24 hr. and 30 hr. [1]: statistically significant difference in the number of survivors
T-lymphocyte function, T4/T8 ratio, granulocyte lysosomal cation proteins (T-lymphocyte function): pronounced increase
B-Lymphocytes ([2]; Athletes): 0.29 ± 0.02 ×10^9/L
B-Lymphocytes % Normal Value ([2]; Athletes): (74%)
B-Lymphocytes (%) ([2]; Athletes): 13.6 ± 0.9 %
Blasts w/Con-A ([2]; Athletes): 53.4 ± 3.9%
Blasts w/PHA ([2]; Athletes): 42.5 ± 2.5 %
C3 ([2]; Athletes): 0.8 ± 0.02 g/L
Eosinophils ([2]; Athletes): 0.23 ± 0.03 ×10^9/L
Eosinophils (%) ([2]; Athletes): 4.2 ± 0.6%
Eosinophils, % Normal Value ([2]; Athletes): (96%)
Granulocyte Cationic Proteins ([2]; Athletes): 1.1 ± 0.04
IgA ([2]; Athletes): 1.8 ± 0.1 mg/mL
IgA % Normal Value ([2]; Athletes): (138%)
IgG ([2]; Athletes): 10.2 ± 0.6 mg/mL
IgG % Normal Value ([2]; Athletes): (84%)
IgM ([2]; Athletes): 1.1 ± 0.07 mg/mL
IgM % Normal Value ([2]; Athletes): (100%)
Leukocytes ([2]; Athletes): 6.1 ± 0.2 ×10^9/L
Leukocytes % Normal Value ([2]; Athletes): (109%)
Leukocytes, Ratio Post-Treat/Pre-Treat Value ([2]; Athletes): (1.09)
Lymphocytes ([2]; Athletes): 2.22 ± 0.1 ×10^9/L
Lymphocytes % Normal Value ([2]; Athletes): (104%)
Lymphocytes, % ([2]; Athletes): 34.9 ± 4.7%
Monocytes ([2]; Athletes): 0.59 ± 0.05 ×10^9/L
Monocytes, % ([2]; Athletes): 9.4 ± 0.5%
Monocytes, % Normal Value ([2]; Athletes): (137%)
Neutrophils ([2]; Athletes): 3.01 ± 0.2 ×10^9/L
Neutrophils, % ([2]; Athletes): 49.0 ± 1.5%
Neutrophils, % Normal Value ([2]; Athletes): (115%)
Phagocytosis (yeast) ([2]; Athletes): 73.3 ± 1.5
Salivary IgM ([2]; Athletes): 0.65 g/L
Salivary Lysozyme ([2]; Athletes): 68.7 ± 1.3 %
Salivary Secretory IgA ([2]; Athletes): 0.056 ± 0.004 g/L
Serum Lysozyme ([2]; Athletes): 60.2 ± 1.6%
Serum β-Lysin ([2]; Athletes): 57.6 ± 3.2 %
T-Lymphocytes ([2]; Athletes): 1.55 ± 0.08 ×10^9/L
T-Lymphocytes % Normal Value ([2]; Athletes): (108%)
T-Lymphocytes (%) ([2]; Athletes): 70.8 ± 1.4 %
T-helper (CD4+) ([2]; Athletes): 1.25 ± 0.07 ×10^9/L
T-helper (CD4+), % ([2]; Athletes): 56.1 ± 1.3 %
T-helper (CD4+), % Normal Value ([2]; Athletes): (112%)
T-suppressor (CD8+) ([2]; Athletes): 0.12 ± 0.02 ×10^9/L
T-suppressor (CD8+), % ([2]; Athletes): 5.9 ± 0.7%
T-suppressor (CD8+), % Normal Value ([2]; Athletes): (86%)
Total Salivary IgA ([2]; Athletes): 0.55 ± 0.05 g/L
B-Lymphocytes ([2]; Controls): 0.41 ± 0.05 ×10^9/L
B-Lymphocytes % Normal Value ([2]; Controls): (85%)
B-Lymphocytes (%) ([2]; Controls): 20.1 ± 1.5%
Blasts w/Con-A ([2]; Controls): 66.8 ± 4.0 %
Blasts w/PHA ([2]; Controls): 34.1 ± 3.1%
C3 ([2]; Controls): 0.7 ± 0.03 g/L
Eosinophils ([2]; Controls): 0.22 ± 0.07 ×10^9/L
Eosinophils (%) ([2]; Controls): 4.0 ± 0.8%
Eosinophils, % Normal Value ([2]; Controls): (85%)
Granulocyte Cationic Proteins ([2]; Controls): 1.22 ± 0.1
IgA ([2]; Controls): 1.8 ± 0.2 mg/mL
IgA % Normal Value ([2]; Controls): (100%)
IgG ([2]; Controls): 12.6 ± 0.7 mg/mL
IgG % Normal Value ([2]; Controls): (104%)
IgM ([2]; Controls): 1.0 ± 0.02 mg/mL
IgM % Normal Value ([2]; Controls): (77%)
Leukocytes ([2]; Controls): 5.6 ± 0.4 ×10^9/L
Leukocytes % Normal Value ([2]; Controls): (97%)
Leukocytes, Ratio Post-Treat/Pre-Treat Value ([2]; Controls): (0.85)
Lymphocytes ([2]; Controls): 2.08 ± 0.2 ×10^9/L
Lymphocytes % Normal Value ([2]; Controls): (99%)
Lymphocytes, % ([2]; Controls): 37.8 ± 2.9%
Monocytes ([2]; Controls): 0.58 ± 0.07 ×10^9/L
Monocytes, % ([2]; Controls): 10.6 ± 1.2%
Monocytes, % Normal Value ([2]; Controls): (88%)
Neutrophils ([2]; Controls): 2.67 ± 0.3 ×10^9/L
Neutrophils, % ([2]; Controls): 47.5 ± 2.9%
Neutrophils, % Normal Value ([2]; Controls): (75%)
Phagocytosis (yeast) ([2]; Controls): 75.0 ± 1.7
Salivary IgM ([2]; Controls): 0.73 g/L
Salivary Lysozyme ([2]; Controls): 63.5 ± 3.0%
Salivary Secretory IgA ([2]; Controls): 0.066 ± 0.009 g/L
Serum Lysozyme ([2]; Controls): 50.6 ± 1.4 %
Serum β-Lysin ([2]; Controls): 46.8 ± 5.4%
T-Lymphocytes ([2]; Controls): 1.56 ± 0.1 ×10^9/L
T-Lymphocytes % Normal Value ([2]; Controls): (108%)
T-Lymphocytes (%) ([2]; Controls): 73.9 ± 1.7%
T-helper (CD4+) ([2]; Controls): 1.36 ± 0.2 ×10^9/L
T-helper (CD4+), % ([2]; Controls): 65.6 ± 2.0 %
T-helper (CD4+), % Normal Value ([2]; Controls): (136%)
T-suppressor (CD8+) ([2]; Controls): 0.08 ± 0.05 ×10^9/L
T-suppressor (CD8+), % ([2]; Controls): 4.8 ± 1.0%
T-suppressor (CD8+), % Normal Value ([2]; Controls): (100%)
Total Salivary IgA ([2]; Controls): 0.48 ± 0.1 g/L
Incidence of infection ([2]; athletes treated, two month period): 24.7%
Reduction of the rate of upper respiratory infections and illness ([2]; vs controls): 4 fold
IgG (Chronic prostatitis; After L-Glu-L-Trp, pre-treatment value Decreased (n = 2)): 7.8 ± 1.1 g/L
Phagocytes (% of PBL) (Chronic prostatitis; After L-Glu-L-Trp, pre-treatment value Decreased (n = 5)): 36.6 ± 8.5 % of PBL
Imm. Cmplx. (Chronic prostatitis; After L-Glu-L-Trp, pre-treatment value Decreased (n = 8)): 0.07 ± 0.01 units
B-Lymphocytes (Chronic prostatitis; After L-Glu-L-Trp, pre-treatment value Decreased (n = 10)): 26.0 ± 2.9
Complement (CH50) (Chronic prostatitis; [3]): 34.2 ± 0.9
T-Lymphocytes (%) (Chronic prostatitis; [3]): 37.9 ± 2.2%
IgM (Chronic prostatitis; After L-Glu-L-Trp, pre-treatment value Increased (n = 1)): 3.44 g/L
T-Lymphocytes (%) (Chronic prostatitis; After L-Glu-L-Trp, pre-treatment value Increased (n = 2)): 40.0 ± 15.5%
IgG (Chronic prostatitis; After L-Glu-L-Trp, pre-treatment value Increased (n = 6)): 14.7 ± 1.4 g/L
Complement (CH50) (Chronic prostatitis; After L-Glu-L-Trp, pre-treatment value Increased (n = 7)): 30.7 ± 0.9
B-Lymphocytes (Chronic prostatitis; After L-Glu-L-Trp, pre-treatment value Increased (n = 8)): 24.8 ± 2.9
Imm. Cmplx. (Chronic prostatitis; After L-Glu-L-Trp, pre-treatment value Increased (n = 19)): 0.08 ± 0.01 units
Phagocytes (% of PBL) (Chronic prostatitis; After L-Glu-L-Trp, pre-treatment value Increased (n = 26)): 37.7 ± 3.9 % of PBL
Phagocytes (% of PBL) (Chronic prostatitis; After L-Glu-L-Trp, pre-treatment value Normal (n = 3)): 58.6 ± 18 % of PBL
Imm. Cmplx. (Chronic prostatitis; After L-Glu-L-Trp, pre-treatment value Normal (n = 7)): 0.08 ± 0.01 units
Complement (CH50) (Chronic prostatitis; After L-Glu-L-Trp, pre-treatment value Normal (n = 13)): 29.3 ± 0.9
B-Lymphocytes (Chronic prostatitis; After L-Glu-L-Trp, pre-treatment value Normal (n = 16)): 29.2 ± 2.2
T-Lymphocytes (%) (Chronic prostatitis; After L-Glu-L-Trp, pre-treatment value Normal (n = 18)): 50.0 ± 3.6%
IgG (Chronic prostatitis; After L-Glu-L-Trp, pre-treatment value Normal (n = 26)): 12.5 ± 0.7 g/L
IgM (Chronic prostatitis; After L-Glu-L-Trp, pre-treatment value Normal (n = 33)): 2.08 ± 0.12 g/L
IgA (Chronic prostatitis; After L-Glu-L-Trp, pre-treatment value Normal (n = 34)): 2.2 ± 0.12 g/L
“Unsatisfactory” results (Chronic prostatitis; Group 1): No “unsatisfactory” results were recorded
B-Lymphocytes: % of PBL (Chronic prostatitis; [4]): 27.2 ± 1.4 % of PBL
B-Lymphocytes: No. (Chronic prostatitis; [4]): 0.54 ± 0.1 10^9/L
Complement (CH50) (Chronic prostatitis; [4]): 29.4 ± 0.5
IgA (Chronic prostatitis; [4]): 2.2 ± 0.1 g/L
IgG (Chronic prostatitis; [4]): 12.5 ± 0.6 g/L
IgM (Chronic prostatitis; [4]): 2.1 ± 0.1 g/L
Immune Complexes (Chronic prostatitis; [4]): 0.80 ± 0.004 units
Phagocytes: % PBL (Chronic prostatitis; [4]): 39.4 ± 3.5 % PBL
T-Lymphocytes: % of Lym (Chronic prostatitis; [4]): 44.4 ± 2.3 % of Lym
T-Lymphocytes: No. (Chronic prostatitis; [4]): 0.88 ± 0.1 10^9/L
